# Laboratory results as given in BindingDB's records for doi:10.1039/c9md00489k (University of Porto, 2020).
# *1 amine or outer side, *2 acyl side, *3 side chain or, on linkers, in order; H or OH if unused. Where a SMILES comes first, the peptide text is derived from it. The star is where a group is joined. X1 = O=c1nc(N*)ccn1[C@@H]1O[C@H](CO)[C@@H](O)C1(F)F; Suc = O=C(CCC(=O)[*:2])[*:1]
# Experiment: Substrate activity at ENT1 in human BXPC-3 cells assessed as inhibition of cell growth pretreated with ENT1 inhibitor nitrobenzylthioinosine for 5 mins measured after 72 hrs by SRB assay
row,Molecule,IC50 [nM]
1,CSCC[C@H](NC(=O)[C@H](NC(=O)[C@@H]1CCCN1C(=O)[C@H](CC(C)C)NC(=O)[C@H](CCCCN)NC(=O)[C@@H](N)Cc1c[nH]c2ccccc12)C(C)C)C(N)=O,> 1000
2,CSCC[C@H](NC(=O)[C@@H](NC(=O)[C@@H]1CCCN1C(=O)[C@H](CC(C)C)NC(=O)[C@H](CCCCN)NC(=O)CCC(=O)Nc1ccn([C@@H]2O[C@H](CO)[C@@H](O)C2(F)F)c(=O)n1)C(C)C)C(=O)N[C@@H](Cc1c[nH]c2ccccc12)C(N)=O ({X1-Suc}-KLPVMW-NH2),384
3,CSCC[C@H](NC(=O)[C@@H](NC(=O)[C@@H]1CCCN1C(=O)[C@H](CC(C)C)NC(=O)[C@H](CCCCN)NC(=O)[C@H](Cc1c[nH]c2ccccc12)NC(=O)CCC(=O)Nc1ccn([C@@H]2O[C@H](CO)[C@@H](O)C2(F)F)c(=O)n1)C(C)C)C(N)=O ({X1-Suc}-WKLPVM-NH2),380
4,CC(C)C[C@H](NC(=O)[C@@H](NC(=O)[C@@H]1CCCN1C(=O)[C@@H](NC(=O)[C@H](Cc1c[nH]c2ccccc12)NC(=O)CCC(=O)Nc1ccn([C@@H]2O[C@H](CO)[C@@H](O)C2(F)F)c(=O)n1)C(C)C)[C@@H](C)O)C(=O)N[C@@H](CCCCN)C(N)=O ({X1-Suc}-WVPTLK-NH2),381
5,H-KLPVMW-NH2,> 1000
6,H-WVPTLK-NH2,> 1000
